# Test results reported in ChEMBL document CHEMBL3616422, “A novel family of diarylpyrimidines (DAPYs) featuring a diatomic linker: Design, synthesis and anti-HIV activities” (Bioorg Med Chem, 2015).
# How the values were obtained:
# [1] = tested on: Human immunodeficiency virus 1; assay: Antiviral activity against HIV 1 RES056 harboring reverse transcriptase K103N/Y181C double mutant infected in human MT4 cells assessed as protection against virus-induced cytopathogenicity after 5 days by MTT assay; type: functional, organism-based; details: Human immunodeficiency virus 1, RES056, MT4, 120 h
# [2] = Cytotoxicity against uninfected human MT4 cells assessed as decrease in cell viability after 5 days by MTT assay; type: cell-based
# [3] = molecular target: Human immunodeficiency virus type 1 reverse transcriptase (Human immunodeficiency virus 1, UniProt Q72547); assay: Inhibition of recombinant HIV1 Reverse transcriptase p66/p51 using poly (rA)-oligo (dT) as template primer after 40 mins by spectrofluorometric analysis
# [4] = tested on: Human immunodeficiency virus 2; assay: Antiviral activity against wild type HIV 2 ROD infected in human MT4 cells assessed as protection against virus-induced cytopathogenicity after 5 days by MTT assay; type: functional, organism-based; details: Human immunodeficiency virus 2, ISOLATE ROD, MT4, 120 h
# [5] = tested on: Human immunodeficiency virus 1; assay: Antiviral activity against wild type HIV 1 3B infected in human MT4 cells assessed as protection against virus-induced cytopathogenicity after 5 days by MTT assay; type: functional, organism-based; details: Human immunodeficiency virus 1, 3B, MT4, 120 h
# [6] = Selectivity index, ratio of CC50 for uninfected human MT4 cells to EC50 for wild type HIV 1 3B infected in human MT4 cells; type: toxicity, cell-based; details: uninfected and infected with wild type HIV-1 3B, read-out: Ratio CC50/EC50
SMILES,EC50 [1],CC50 at 120 h [2],IC50 [3],EC50 [4],EC50 [5],selectivity ratio [6]
Cc1ccnc2c1NC(=O)c1cccnc1N2C1CC1 [NEVIRAPINE],≥ 2.02 mg/L,> 15 µM,–,–,–,–
N#Cc1ccc(Nc2nccc(NCc3ccc(C(F)(F)F)cc3)n2)cc1,> 1.11 mg/L,3.01 µM,0.07 µM,> 1.11 mg/L,0.127 µM,24
N#Cc1ccc(Nc2nccc(NCc3ccccc3Br)n2)cc1,> 74.1 mg/L,195 µM,0.071 µM,> 74.1 mg/L,0.0421 µM,4680
COc1ccccc1CNc1ccnc(Nc2ccc(C#N)cc2)n1,> 27.3 mg/L,82.5 µM,0.936 µM,> 27.3 mg/L,0.0875 µM,937
Cc1ccc(CNc2ccnc(Nc3ccc(C#N)cc3)n2)cc1C,> 1.21 mg/L,3.67 µM,0.009 µM,> 1.21 mg/L,0.003 µM,1190
N#Cc1ccc(Nc2nccc(NCc3cccc(F)c3)n2)cc1,> 0.45 mg/L,1.41 µM,0.016 µM,> 0.45 mg/L,0.0044 µM,333
COc1cccc(CNc2ccnc(Nc3ccc(C#N)cc3)n2)c1,> 0.79 mg/L,2.38 µM,0.018 µM,> 0.79 mg/L,0.0045 µM,518
N#Cc1ccc(Nc2nccc(NCc3ccc(Br)cc3)n2)cc1,> 1.28 mg/L,3.37 µM,0.029 µM,> 1.28 mg/L,0.0394 µM,85
N#Cc1ccc(Nc2nccc(NCc3ccccc3F)n2)cc1,> 0.88 mg/L,2.76 µM,0.016 µM,> 0.88 mg/L,0.0026 µM,1080
N#Cc1ccc(Nc2nccc(NCc3ccccc3C(F)(F)F)n2)cc1,> 41.6 mg/L,113 µM,1.54 µM,> 41.6 mg/L,1.06 µM,107
Cc1cc(C#N)cc(C)c1Oc1nc(Nc2ccc(C#N)cc2)nc(N)c1Br [ETRAVIRINE],–,> 4.59 µM,–,–,–,–
N#Cc1ccc(Nc2nccc(NCc3ccc(F)cc3F)n2)cc1,> 1.41 mg/L,4.18 µM,0.056 µM,> 1.41 mg/L,0.0169 µM,245
N#Cc1ccc(Nc2nccc(NCc3ccc(Cl)cc3)n2)cc1,> 1.1 mg/L,3.28 µM,0.048 µM,> 1.1 mg/L,0.0476 µM,71
N#Cc1ccc(Nc2nccc(NCc3ccc(F)cc3)n2)cc1,> 0.55 mg/L,1.72 µM,0.382 µM,> 0.55 mg/L,0.072 µM,23
COc1ccc(CNc2ccnc(Nc3ccc(C#N)cc3)n2)cc1,> 0.78 mg/L,2.35 µM,0.085 µM,> 0.78 mg/L,0.0393 µM,60
N#Cc1ccc(Nc2nccc(NCc3cccc(Cl)c3)n2)cc1,> 0.7 mg/L,2.08 µM,0.018 µM,> 0.7 mg/L,0.0119 µM,175
Cc1ccc(CNc2ccnc(Nc3ccc(C#N)cc3)n2)cc1,> 0.79 mg/L,2.5 µM,0.013 µM,> 0.79 mg/L,0.0082 µM,297
N#Cc1ccc(Nc2nccc(NCc3cccc(Br)c3)n2)cc1,> 0.67 mg/L,1.76 µM,0.024 µM,> 0.67 mg/L,0.0203 µM,86
N#Cc1ccc(Nc2nccc(NCc3ccccc3Cl)n2)cc1,> 92.3 mg/L,275 µM,0.024 µM,> 92.3 mg/L,0.0149 µM,18600
N#Cc1ccc(Nc2nccc(NCc3ccccc3)n2)cc1,> 0.48 mg/L,1.59 µM,0.02 µM,> 0.48 mg/L,0.0053 µM,294
N#Cc1ccc(Nc2nccc(NCc3cccc(C(F)(F)F)c3)n2)cc1,> 0.71 mg/L,1.92 µM,0.122 µM,> 0.71 mg/L,0.206 µM,9
O=C1Nc2ccc(Cl)cc2[C@@](C#CC2CC2)(C(F)(F)F)O1 [EFAVIRENZ],–,> 6.34 µM,–,–,0.0063 µM,–
